Measured values taken from patent publication US12637440B2, “Amide derivative useful as diacylglycerol acyltransferase 2 inhibitor, and use thereof” (LG CHEM, LTD., priority 2019, dated 2026).

Target: T1, Recombinant human DGAT2 protein (Homo sapiens, UniProt Q96PD7)
T1 construct: FLAG (DYKDDDDK); (N); made in house; host or cells: Sf-21 insect cells (BacPAK baculovirus system); used as a membrane preparation
T1 sequence (Q96PD7 1-388): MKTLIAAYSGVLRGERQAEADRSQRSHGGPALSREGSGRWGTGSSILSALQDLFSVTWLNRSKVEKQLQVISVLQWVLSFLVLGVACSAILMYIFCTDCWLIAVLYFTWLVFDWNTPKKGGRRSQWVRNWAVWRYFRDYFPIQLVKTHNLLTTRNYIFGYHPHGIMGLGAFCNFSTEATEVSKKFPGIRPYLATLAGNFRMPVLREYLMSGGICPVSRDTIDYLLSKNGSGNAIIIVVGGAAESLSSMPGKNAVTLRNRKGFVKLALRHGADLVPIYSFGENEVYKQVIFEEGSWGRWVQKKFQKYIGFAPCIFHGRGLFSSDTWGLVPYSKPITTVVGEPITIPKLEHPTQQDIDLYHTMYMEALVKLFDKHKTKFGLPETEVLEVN
Assay: Measurement of inhibitory effect against DGAT2 enzyme activity (SPA, Phospholipid FlashPlate, [14C]-TG production)
Type: biochemical
Details: concentration inhibiting [14C]-labeled triacyl glycerol (TG) production by 50%; 2 μg DGAT2-membrane protein from Sf-21 cells, 37° C.
Method in brief: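 Membranes from Sf-21 cells expressing human DGAT2 (2 μg) preincubated 20 min at 37 °C with compound (3 nM–10 μM, 1% DMSO) in HEPES/MgCl2/BSA with 50 μM 1,2-dioleoyl glycerol, then 1 μM [14C]oleoyl-CoA for 15 min. [14C]-TG measured by SPA FlashPlate; inhibition as % of untreated control.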

Row | Compound | IC50 [nM]
1 | CCOc1ccccc1O[C@@H]1CCCN(c2cncc(NC(=O)CC(C)(C)CC(=O)O)n2)C1 [Example 25, (R)-5-((6-(3-(2-ethoxyphenoxy)piperidin-1-yl)pyrazin-2-yl)amino)-3,3-dimethyl-5-oxopentanoic acid] | 1800
2 | CCOc1ccccc1O[C@@H]1CCCN(c2cncc(NC(=O)C34CCC(C(=O)O)(CC3)CC4)n2)C1 [Example 21, (R)-4-((6-(3-(2-ethoxyphenoxy)piperidin-1-yl)pyrazin-2-yl)carbamoyl)bicyclo[2.2.2]octane-1-carboxylic acid] | 4800
3 | CCOc1ccccc1O[C@@H]1CCCN(c2cncc(NC(=O)CCc3ccc(N4CCC(C(=O)O)CC4)cc3)n2)C1 [Example 56, (R)-1-(4-(3-((6-(3-(2-ethoxyphenoxy)piperidin-1-yl)pyrazin-2-yl)amino)-3-oxopropyl)phenyl)piperidine-4-carboxylic acid] | 820
4 | CC(C)(Cc1ccc(C(C)(C)C(=O)Nc2cncc(N3CCC[C@@H](Oc4ccccc4OC4CCC4)C3)n2)cc1)C(=O)O [Example 126, (R)-3-(4-(1-((6-(3-(2-cyclobutoxyphenoxy)piperidin-1-yl)pyrazin-2-yl)amino)-2-methyl-1-oxopropan-2-yl)phenyl)-2,2-dimethylpropanoic acid] | 3800
5 | CCOc1ccccc1O[C@@H]1CCCN(c2cncc(NC(=O)Cc3ccc(OCC(=O)O)cc3)n2)C1 [Example 99] | 2900
6 | CCOc1ccccc1O[C@@H]1CCCN(c2cncc(NC(=O)C3CCN(c4nnn(CC(=O)O)n4)CC3)n2)C1 [Example 82, (R)-2-(5-(4-((6-(3-(2-ethoxyphenoxy)piperidin-1-yl)pyrazin-2-yl)carbamoyl)piperidin-1-yl)-2H-tetrazol-2-yl)acetic acid] | 6800
7 | CCOc1ccccc1O[C@@H]1CCCN(c2cncc(NC(=O)C3CCN(c4ccc(C(C)(C)C(=O)O)cn4)CC3)n2)C1 [Example 81, (R)-2-(6-(4-((6-(3-(2-ethoxyphenoxy)piperidin-1-yl)pyrazin-2-yl)carbamoyl)piperidin-1-yl)pyridin-3-yl)-2-methylpropanoic acid] | 740
8 | CCOc1ccccc1O[C@@H]1CCCN(c2cncc(NC(=O)N3CCOCC3)n2)C1 [Example 3, (R)—N-(6-(3-(2-ethoxyphenoxy)piperidin-1-yl)pyrazin-2-yl)morpholine-4-carboxamide] | 2300
9 | CCOc1ccccc1O[C@@H]1CCCN(c2cc(C(F)(F)F)nc(NC(=O)Cc3ccc(CC(C)(C)C(=O)O)cc3)n2)C1 [Example 72] | 1800

The next compounds have a lower IC50 than those just listed; values first:

Row | IC50 [nM] | Compound
10 | 300 | CCOc1ccccc1O[C@@H]1CCCN(c2cncc(NC(=O)CCC(C)(C)C(=O)O)n2)C1 [Example 24, (R)-5-((6-(3-(2-ethoxyphenoxy)piperidin-1-yl)pyrazin-2-yl)amino)-2,2-dimethyl-5-oxopentanoic acid]
11 | 90 | CCOc1ccccc1O[C@@H]1CCCN(c2cncc(NC(=O)c3ccc(OC)cc3)n2)C1 [Example 9, (R)—N-(6-(3-(2-ethoxyphenoxy)piperidin-1-yl)pyrazin-2-yl)-4-methoxybenzamide]
12 | 190 | CC(C)(C(=O)O)c1ccc(CCC(=O)Nc2cncc(N3CCC[C@@H](Oc4ccccc4OCCF)C3)n2)cc1 [Example 93, (R)-2-(4-(3-((6-(3-(2-(2-fluoroethoxy)phenoxy)piperidin-1-yl)pyrazin-2-yl)amino)-3-oxopropyl)phenyl)-2-methylpropanoic acid]
13 | 310 | CCOc1ccccc1O[C@@H]1CCCN(c2cncc(NC(=O)C(C)(C)c3ccc(CCC(=O)O)cc3)n2)C1 [Example 73, (R)-3-(4-(1-((6-(3-(2-ethoxyphenoxy)piperidin-1-yl)pyrazin-2-yl)amino)-2-methyl-1-oxopropan-2-yl)phenyl)propanoic acid]
14 | 150 | CCOc1ccccc1O[C@@H]1CCCN(c2cncc(NC(=O)CCc3ccc(C(=O)O)c(C)c3)n2)C1 [Example 45, (R)-4-(3-((6-(3-(2-ethoxyphenoxy)piperidin-1-yl)pyrazin-2-yl)amino)-3-oxopropyl)-2-methylbenzoic acid]
